# Assay results: patent US6465395B2, “Substituted methylene pyrazolinones and the herbicidal use thereof” (BASF Aktiengesellschaft, priority 2000, dated 2002)
# How the values were obtained:
# Format in all cases: in vivo
# Parameters in all cases: scale not given here
# [1] = tested on: PANDI, Panicum, Fall, Panicum dichotomiflorum, Michx; experiment: Postemergence herbicidal evaluation
# Description: (§1) The postemergence herbicidal activity of the compounds of the present invention is evaluated by the following tests. Seedling plants are grown in jiffy flats for about two weeks. The test compounds are dispersed in 80/20 (v/v) acetone/water mixtures containing 1.0% SUN-IT®II, a methylated seed oil, in sufficient quantities to provide the equivalent of about 0.006 kg/ha to 0.800 kg/ha of active compound when applied to the plants through a spray nozzle operating at 40 psi for a predetermined time. After spraying, the plants are placed on greenhouse benches and are cared for in accordance with conventional greenhouse procedures. Approximately two to three weeks after treatment, the seedling plants are examined and rated according to the rating system set forth below. Where more than one test is involved for a given compound, the data are averaged.
# [2] = tested on: ORYSAT, Rice, Tebonnet, Oryza sativa, (L.) Tebonnet; experiment: Postemergence herbicidal evaluation; details: crop (rice)
# Description: as §1
# [3] = tested on: ECHCG, Barnyardgrass, Echinochloa crus-galli, (L.) Beau; experiment: Postemergence herbicidal evaluation
# Description: as §1
# [4] = tested on: SETVI, Foxtail, Green, Setaria viridis, (L.) Beau; experiment: Postemergence herbicidal evaluation
# Description: as §1
# [5] = tested on: AMBEL, Ragweed, Ambrosia artemisifolia, L.; experiment: Postemergence herbicidal evaluation
# Description: as §1
# [6] = tested on: IPOSS, Morningglory spp., Ipomoea spp.; experiment: Postemergence herbicidal evaluation
# Description: as §1
# [7] = tested on: ZEAMX, Corn, Field, Zea mays, L.; experiment: Postemergence herbicidal evaluation; details: crop (corn)
# Description: as §1
# [8] = tested on: ABUTH, Velvetleaf, Abutilon theophrasti, Medic.; experiment: Postemergence herbicidal evaluation
# Description: as §1
# [9] = tested on: PANDI, Panicum, Fall, Panicum dichotomiflorum, Michx; experiment: Preemergence herbicidal evaluation
# Source text: (§2) The preemergence herbicidal activity of the test compounds of the present invention is exemplified by the following tests in which the seeds of a variety of monocotyledonous and dicotyledonous plants are separately mixed with potting soil and planted on top of approximately one inch of soil in separate pint cups. After planting, the cups are sprayed with the selected aqueous acetone solution containing test compound in sufficient quantity to provide the equivalent of about 0.0125 kg/ha to 0.800 kg/ha of test compound per cup. The treated cups are then placed on greenhouse benches, watered and cared for in accordance with conventional greenhouse procedures. Approximately two to four weeks after treatment, the tests are terminated and each cup is examined and rated according to the rating system provided in Example 12. When more than one test is performed for a given compound, the data are averaged.
# [10] = tested on: ORYSAT, Rice, Tebonnet, Oryza sativa, (L.) Tebonnet; experiment: Preemergence herbicidal evaluation; details: crop (rice)
# Source text: as §2
# [11] = tested on: ECHCG, Barnyardgrass, Echinochloa crus-galli, (L.) Beau; experiment: Preemergence herbicidal evaluation
# Source text: as §2
# [12] = tested on: SETVI, Foxtail, Green, Setaria viridis, (L.) Beau; experiment: Preemergence herbicidal evaluation
# Source text: as §2
# [13] = tested on: AMBEL, Ragweed, Ambrosia artemisifolia, L.; experiment: Preemergence herbicidal evaluation
# Source text: as §2
# [14] = tested on: IPOSS, Morningglory spp., Ipomoea spp.; experiment: Preemergence herbicidal evaluation
# Source text: as §2
# [15] = tested on: ZEAMX, Corn, Field, Zea mays, L.; experiment: Preemergence herbicidal evaluation; details: crop (corn)
# Source text: as §2
# [16] = tested on: CHEAL, Lambsquarters, Chenopodium album, L.; experiment: Preemergence herbicidal evaluation
# Source text: as §2
# [17] = tested on: ABUTH, Velvetleaf, Abutilon theophrasti, Medic.; experiment: Preemergence herbicidal evaluation
# Source text: as §2
# [18] = tested on: GOSHI, Cotton, Gossypium hirsutum, L.; experiment: Preemergence herbicidal evaluation; details: crop (cotton)
# Source text: as §2
substance,measurement,setting,value
"4,4′-[(Z,Z)-Dithiobis[(2,3-dihydro-3,3,4-trimethylbenzo[b]thien-5-yl)methylidyne]]bis[1-methyl-2-pyrazolin-5-one] S,S,S′,S′,-tetraoxide, 80:20 mixture with 4,4′-[(E,Z)-dithiobis[(2,3-dihydro-3,3,4-trimethyl-benzo[b]thien-5-yl)methylidyne]]bis[1-methyl-2-pyrazolin-5-one] S,S,S′,S′-tetraoxide [Example 7]",Herbicide rating PANDI,[1]; 0.0125 kg/ha,5.0
same,Herbicide rating PANDI,[1]; 0.0250 kg/ha,3.0
same,Herbicide rating PANDI,[1]; 0.0500 kg/ha,7.0
same,Herbicide rating PANDI,[1]; 0.1000 kg/ha,9.0
same,Herbicide rating ORYSAT,[2]; 0.0125 kg/ha,3.5
same,Herbicide rating ORYSAT,[2]; 0.0250 kg/ha,6.0
same,Herbicide rating ORYSAT,[2]; 0.0500 kg/ha,7.0
same,Herbicide rating ORYSAT,[2]; 0.1000 kg/ha,7.0
same,Herbicide rating ECHCG,[3]; 0.0125 kg/ha,7.0
same,Herbicide rating ECHCG,[3]; 0.0250 kg/ha,7.0
same,Herbicide rating ECHCG,[3]; 0.0500 kg/ha,8.0
same,Herbicide rating ECHCG,[3]; 0.1000 kg/ha,9.0
same,Herbicide rating SETVI,[4]; 0.0125 kg/ha,7.0
same,Herbicide rating SETVI,[4]; 0.0250 kg/ha,7.0
same,Herbicide rating SETVI,[4]; 0.0500 kg/ha,9.0
same,Herbicide rating SETVI,[4]; 0.1000 kg/ha,9.0
same,Herbicide rating AMBEL,[5]; 0.0125 kg/ha,4.0
same,Herbicide rating AMBEL,[5]; 0.0250 kg/ha,7.0
same,Herbicide rating AMBEL,[5]; 0.0500 kg/ha,9.0
same,Herbicide rating AMBEL,[5]; 0.1000 kg/ha,9.0
same,Herbicide rating IPOSS,[6]; 0.0125 kg/ha,1.0
same,Herbicide rating IPOSS,[6]; 0.0250 kg/ha,1.0
same,Herbicide rating IPOSS,[6]; 0.0500 kg/ha,2.0
same,Herbicide rating IPOSS,[6]; 0.1000 kg/ha,2.0
same,Herbicide rating ZEAMX,[7]; 0.0125 kg/ha,0.0
same,Herbicide rating ZEAMX,[7]; 0.0250 kg/ha,0.0
same,Herbicide rating ZEAMX,[7]; 0.0500 kg/ha,0.0
same,Herbicide rating ZEAMX,[7]; 0.1000 kg/ha,2.0
same,Herbicide rating ABUTH,[8]; 0.0125 kg/ha,3.0
same,Herbicide rating ABUTH,[8]; 0.0250 kg/ha,4.0
same,Herbicide rating ABUTH,[8]; 0.0500 kg/ha,5.0
same,Herbicide rating ABUTH,[8]; 0.1000 kg/ha,7.0
"4-Methoximino-5-methyl-6-(1-ethyl-5-hydroxypyrazol-4-yl)thiocarbonylthiochroman-1,1-dioxide, zinc (+2) chelate [Example 6]",Herbicide rating PANDI,[9]; 0.0500 kg/ha,6.0
same,Herbicide rating PANDI,[9]; 0.1000 kg/ha,9.0
same,Herbicide rating PANDI,[9]; 0.2000 kg/ha,9.0
same,Herbicide rating PANDI,[9]; 0.4000 kg/ha,8.0
same,Herbicide rating PANDI,[9]; 0.8000 kg/ha,8.0
same,Herbicide rating ORYSAT,[10]; 0.0500 kg/ha,4.0
same,Herbicide rating ORYSAT,[10]; 0.1000 kg/ha,7.0
same,Herbicide rating ORYSAT,[10]; 0.2000 kg/ha,9.0
same,Herbicide rating ORYSAT,[10]; 0.4000 kg/ha,9.0
same,Herbicide rating ORYSAT,[10]; 0.8000 kg/ha,9.0
same,Herbicide rating ECHCG,[11]; 0.0500 kg/ha,3.0
same,Herbicide rating ECHCG,[11]; 0.1000 kg/ha,9.0
same,Herbicide rating ECHCG,[11]; 0.2000 kg/ha,9.0
same,Herbicide rating ECHCG,[11]; 0.4000 kg/ha,9.0
same,Herbicide rating ECHCG,[11]; 0.8000 kg/ha,8.0
same,Herbicide rating SETVI,[12]; 0.0500 kg/ha,4.0
same,Herbicide rating SETVI,[12]; 0.1000 kg/ha,7.0
same,Herbicide rating SETVI,[12]; 0.2000 kg/ha,9.0
same,Herbicide rating SETVI,[12]; 0.4000 kg/ha,9.0
same,Herbicide rating SETVI,[12]; 0.8000 kg/ha,9.0
same,Herbicide rating AMBEL,[13]; 0.0500 kg/ha,7.0
same,Herbicide rating AMBEL,[13]; 0.1000 kg/ha,8.0
same,Herbicide rating AMBEL,[13]; 0.2000 kg/ha,9.0
same,Herbicide rating AMBEL,[13]; 0.4000 kg/ha,9.0
same,Herbicide rating AMBEL,[13]; 0.8000 kg/ha,9.0
same,Herbicide rating IPOSS,[14]; 0.0500 kg/ha,1.0
same,Herbicide rating IPOSS,[14]; 0.1000 kg/ha,3.0
same,Herbicide rating IPOSS,[14]; 0.2000 kg/ha,6.0
same,Herbicide rating IPOSS,[14]; 0.4000 kg/ha,5.0
same,Herbicide rating IPOSS,[14]; 0.8000 kg/ha,5.0
same,Herbicide rating ZEAMX,[15]; 0.0500 kg/ha,0.0
same,Herbicide rating ZEAMX,[15]; 0.1000 kg/ha,0.0
same,Herbicide rating ZEAMX,[15]; 0.2000 kg/ha,0.0
same,Herbicide rating ZEAMX,[15]; 0.4000 kg/ha,1.0
same,Herbicide rating ZEAMX,[15]; 0.8000 kg/ha,0.0
same,Herbicide rating CHEAL,[16]; 0.0500 kg/ha,9.0
same,Herbicide rating CHEAL,[16]; 0.1000 kg/ha,9.0
same,Herbicide rating CHEAL,[16]; 0.2000 kg/ha,9.0
same,Herbicide rating CHEAL,[16]; 0.4000 kg/ha,9.0
same,Herbicide rating CHEAL,[16]; 0.8000 kg/ha,9.0
same,Herbicide rating ABUTH,[17]; 0.0500 kg/ha,9.0
same,Herbicide rating ABUTH,[17]; 0.1000 kg/ha,9.0
same,Herbicide rating ABUTH,[17]; 0.2000 kg/ha,9.0
same,Herbicide rating ABUTH,[17]; 0.4000 kg/ha,9.0
same,Herbicide rating ABUTH,[17]; 0.8000 kg/ha,9.0
same,Herbicide rating GOSHI,[18]; 0.0500 kg/ha,0.0
same,Herbicide rating GOSHI,[18]; 0.1000 kg/ha,1.0
same,Herbicide rating GOSHI,[18]; 0.2000 kg/ha,6.0
same,Herbicide rating GOSHI,[18]; 0.4000 kg/ha,8.0
same,Herbicide rating GOSHI,[18]; 0.8000 kg/ha,7.0
